Key:
Assay type in all cases: in vivo
[1] = test system: galium (catchweed bedstraw, Galium aparine); test: Test A greenhouse herbicide test, postemergence
Method in brief: (§1)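 Seedlings in a loam soil and sand mix received formulated compound postemergence at the one- to two-leaf stage. Greenhouse holding lasts approximately 10 d, then injury is scored visually relative to untreated plants, 0 meaning no effect and 100 complete control.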

[2] = test system: blackgrass (Alopecurus myosuroides); test: Test A greenhouse herbicide test, postemergence
Method in brief: as §1

[3] = test system: ryegrass, Italian (Italian ryegrass, Lolium multiflorum); test: Test C greenhouse herbicide test, pre- and postemergence
Method in brief: (§2)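 Greenhouse pots; pre-em on seeded loam:sand blend, post-em on 2–18 cm plants (1–4 leaf) in sphagnum peat/vermiculite medium. Formulation: non-phytotoxic solvent + surfactant. Read-out: visual % control (0–100) vs controls at 13–15 d.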

[4] = test system: galium (catchweed bedstraw, Galium aparine); test: as above
Method in brief: as §2

[5] = test system: soybean (Glycine max); test: as above
Method in brief: as §2

[6] = test system: ragweed (common ragweed, Ambrosia elatior); test: as above
Method in brief: as §2

[7] = test system: ryegrass, Italian (Italian ryegrass, Lolium multiflorum); test: Test A greenhouse herbicide test, pre- and postemergence
Method in brief: (§3)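 Visual injury ratings, 0 (no effect) to 100 (complete control), versus untreated plants after roughly 10 d in a greenhouse. Compounds, formulated in a surfactant-containing non-phytotoxic solvent, were sprayed on loam–sand soil after sowing (pre) or on one- to two-leaf plants 2–10 cm tall (post).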

[8] = test system: ragweed (common ragweed, Ambrosia elatior); test: as above
Method in brief: as §3

[9] = test system: corn (Zea mays); test: as above; conditions: Postemergence
Method in brief: as §3

[10] = test system: wheat (Triticum aestivum); test: as above; conditions: Postemergence
Method in brief: as §3

[11] = test system: foxtail, giant (giant foxtail, Setaria faberii); test: as above
Method in brief: as §3

[12] = test system: kochia (Kochia scoparia); test: as above
Method in brief: as §3

[13] = 125 g ai/ha, 0 to 100 scale where 0 is no effect and 100 is complete control
[14] = 500 g ai/ha, visual rating after approx. 10 d, 0 to 100 scale (0 no effect, 100 complete control)
[15] = Postemergence, 31 g ai/ha, scale 0 to 100 (0 no effect, 100 complete control)
[16] = Postemergence, 62 g ai/ha, 0 to 100 scale (0 no effect, 100 complete control)
[17] = Postemergence, 250 g ai/ha, scale 0 to 100, 0 no effect, 100 complete control, 13 to 15 d
[18] = Preemergence, 31 g ai/ha, scale 0 to 100, 0 is no effect, 100 is complete control
[19] = Preemergence, 62 g ai/ha, scale 0 to 100, 0 is no effect, 100 is complete control
[20] = Preemergence, 125 g ai/ha, scale 0 to 100, 0 is no effect, 100 is complete control
[21] = Preemergence, 250 g ai/ha, scale 0 to 100 (0 no effect, 100 complete control)
[22] = postemergence, 125 g ai/ha, scale 0 to 100, 0 no effect, 100 complete control
[23] = Postemergence, 125 g ai/ha, 0 to 100 scale where 0 is no effect and 100 is complete control
[24] = Postemergence, 500 g ai/ha, visual rating after approx. 10 d, 0 to 100 scale (0 no effect, 100 complete control)
[25] = Preemergence, 125 g ai/ha, 0 to 100 scale where 0 is no effect and 100 is complete control
[26] = Preemergence, 500 g ai/ha, 0 to 100 scale where 0 is no effect and 100 is complete control

Compound: CC(=O)Oc1c(Br)nn(C)c(=O)c1-c1c(C)ccc2ccccc12 [Compound 129]
- Plant response rating, Galium [1, 13]: 100
- Plant response rating, Galium [1, 14]: 100
- Plant response rating, Blackgrass [2, 13]: 60
- Plant response rating, Blackgrass [2, 14]: 100
- Plant response rating, Ryegrass, Italian [3, 15]: 70
- Ryegrass, Italian plant response rating [3, 16]: 90
- Plant response rating, Ryegrass, Italian [3, 17]: 95
- Plant response rating, Ryegrass, Italian [3, 18]: 90
- Plant response rating, Ryegrass, Italian [3, 19]: 90
- Plant response rating, Ryegrass, Italian [3, 20]: 95
- Ryegrass, Italian plant response rating [3, 21]: 95
- Ryegrass, Italian plant response rating [3, 22]: 95
- Plant response rating, Galium [4, 15]: 95
- Galium plant response rating [4, 16]: 100
- Plant response rating, Galium [4, 17]: 100
- Plant response rating, Galium [4, 18]: 95
- Plant response rating, Galium [4, 19]: 98
- Plant response rating, Galium [4, 20]: 100
- Galium plant response rating [4, 21]: 98
- Galium plant response rating [4, 22]: 100
- Plant response rating, Soybean [5, 15]: 0
- Soybean plant response rating [5, 16]: 10
- Plant response rating, Soybean [5, 17]: 25
- Plant response rating, Soybean [5, 18]: 0
- Plant response rating, Soybean [5, 19]: 0
- Plant response rating, Soybean [5, 20]: 5
- Soybean plant response rating [5, 21]: 20
- Soybean plant response rating [5, 22]: 20
- Plant response rating, Ragweed [6, 15]: 90
- Ragweed plant response rating [6, 16]: 90
- Plant response rating, Ragweed [6, 17]: 95
- Plant response rating, Ragweed [6, 18]: 70
- Plant response rating, Ragweed [6, 19]: 85
- Plant response rating, Ragweed [6, 20]: 95
- Ragweed plant response rating [6, 21]: 95
- Ragweed plant response rating [6, 22]: 95
- Plant response rating, Ryegrass, Italian [7, 23]: 100
- Plant response rating, Ryegrass, Italian [7, 24]: 100
- Ryegrass, Italian plant response rating [7, 25]: 100
- Plant response rating, Ryegrass, Italian [7, 26]: 100
- Plant response rating, Ragweed [8, 23]: 100
- Plant response rating, Ragweed [8, 24]: 100
- Ragweed plant response rating [8, 25]: 90
- Plant response rating, Ragweed [8, 26]: 90
- Plant response rating, Corn [9, 13]: 10
- Plant response rating, Corn [9, 14]: 80
- Plant response rating, Wheat [10, 13]: 20
- Plant response rating, Wheat [10, 14]: 80
- Plant response rating, Foxtail, Giant [11, 23]: 90
- Plant response rating, Foxtail, Giant [11, 24]: 100
- Foxtail, Giant plant response rating [11, 25]: 90
- Plant response rating, Foxtail, Giant [11, 26]: 100
- Plant response rating, Kochia [12, 23]: 70
- Plant response rating, Kochia [12, 24]: 90
- Kochia plant response rating [12, 25]: 70
- Plant response rating, Kochia [12, 26]: 90

Compound: CCC(=O)Oc1c(C)nn(C)c(=O)c1-c1ccc(Br)c2ccccc12 [Compound 133]
- Plant response rating, Galium [1, 13]: 100
- Plant response rating, Galium [1, 14]: 100
- Plant response rating, Blackgrass [2, 13]: 60
- Plant response rating, Blackgrass [2, 14]: 60
- Plant response rating, Ryegrass, Italian [3, 15]: 5
- Ryegrass, Italian plant response rating [3, 16]: 10
- Plant response rating, Ryegrass, Italian [3, 17]: 5
- Plant response rating, Ryegrass, Italian [3, 18]: 90
- Plant response rating, Ryegrass, Italian [3, 19]: 95
- Plant response rating, Ryegrass, Italian [3, 20]: 100
- Ryegrass, Italian plant response rating [3, 21]: 100
- Ryegrass, Italian plant response rating [3, 22]: 35
- Plant response rating, Galium [4, 15]: 90
- Galium plant response rating [4, 16]: 95
- Plant response rating, Galium [4, 17]: 100
- Plant response rating, Galium [4, 18]: 95
- Plant response rating, Galium [4, 19]: 95
- Plant response rating, Galium [4, 20]: 100
- Galium plant response rating [4, 21]: 100
- Galium plant response rating [4, 22]: 98
- Plant response rating, Soybean [5, 15]: 55
- Soybean plant response rating [5, 16]: 40
- Plant response rating, Soybean [5, 17]: 40
- Plant response rating, Soybean [5, 18]: 5
- Plant response rating, Soybean [5, 19]: 55
- Plant response rating, Soybean [5, 20]: 65
- Soybean plant response rating [5, 21]: 80
- Soybean plant response rating [5, 22]: 75
- Plant response rating, Ragweed [6, 15]: 0
- Ragweed plant response rating [6, 16]: 0
- Plant response rating, Ragweed [6, 17]: 5
- Plant response rating, Ragweed [6, 18]: 70
- Plant response rating, Ragweed [6, 19]: 75
- Plant response rating, Ragweed [6, 20]: 95
- Ragweed plant response rating [6, 21]: 98
- Ragweed plant response rating [6, 22]: 5
- Plant response rating, Ryegrass, Italian [7, 23]: 100
- Plant response rating, Ryegrass, Italian [7, 24]: 100
- Ryegrass, Italian plant response rating [7, 25]: 100
- Plant response rating, Ryegrass, Italian [7, 26]: 100
- Plant response rating, Ragweed [8, 23]: 100
- Plant response rating, Ragweed [8, 24]: 100
- Ragweed plant response rating [8, 25]: 90
- Plant response rating, Ragweed [8, 26]: 100
- Plant response rating, Corn [9, 13]: 10
- Plant response rating, Corn [9, 14]: 50
- Plant response rating, Wheat [10, 13]: 20
- Plant response rating, Wheat [10, 14]: 30
- Plant response rating, Foxtail, Giant [11, 23]: 20
- Plant response rating, Foxtail, Giant [11, 24]: 90
- Foxtail, Giant plant response rating [11, 25]: 40
- Plant response rating, Foxtail, Giant [11, 26]: 70
- Plant response rating, Kochia [12, 23]: 90
- Plant response rating, Kochia [12, 24]: 100
- Kochia plant response rating [12, 25]: 40
- Plant response rating, Kochia [12, 26]: 100

Compound: COC(=O)Oc1c(Br)nn(C)c(=O)c1-c1c(C)ccc2ccccc12 [Compound 137]
- Plant response rating, Galium [1, 13]: 100
- Plant response rating, Galium [1, 14]: 100
- Plant response rating, Blackgrass [2, 13]: 90
- Plant response rating, Blackgrass [2, 14]: 100
- Plant response rating, Ryegrass, Italian [3, 15]: 10
- Ryegrass, Italian plant response rating [3, 16]: 30
- Plant response rating, Ryegrass, Italian [3, 17]: 60
- Plant response rating, Ryegrass, Italian [3, 18]: 85
- Plant response rating, Ryegrass, Italian [3, 19]: 95
- Plant response rating, Ryegrass, Italian [3, 20]: 100
- Ryegrass, Italian plant response rating [3, 21]: 100
- Ryegrass, Italian plant response rating [3, 22]: 30
- Plant response rating, Galium [4, 15]: 85
- Galium plant response rating [4, 16]: 90
- Plant response rating, Galium [4, 17]: 95
- Plant response rating, Galium [4, 18]: 98
- Plant response rating, Galium [4, 19]: 98
- Plant response rating, Galium [4, 20]: 98
- Galium plant response rating [4, 21]: 100
- Galium plant response rating [4, 22]: 90
- Plant response rating, Soybean [5, 15]: 10
- Soybean plant response rating [5, 16]: 10
- Plant response rating, Soybean [5, 17]: 20
- Plant response rating, Soybean [5, 18]: 30
- Plant response rating, Soybean [5, 19]: 20
- Plant response rating, Soybean [5, 20]: 40
- Soybean plant response rating [5, 21]: 30
- Soybean plant response rating [5, 22]: 15
- Plant response rating, Ragweed [6, 15]: 10
- Ragweed plant response rating [6, 16]: 20
- Plant response rating, Ragweed [6, 17]: 40
- Plant response rating, Ragweed [6, 18]: 80
- Plant response rating, Ragweed [6, 19]: 95
- Plant response rating, Ragweed [6, 20]: 95
- Ragweed plant response rating [6, 21]: 100
- Ragweed plant response rating [6, 22]: 30
- Plant response rating, Ryegrass, Italian [7, 23]: 100
- Plant response rating, Ryegrass, Italian [7, 24]: 100
- Ryegrass, Italian plant response rating [7, 25]: 100
- Plant response rating, Ryegrass, Italian [7, 26]: 100
- Plant response rating, Ragweed [8, 23]: 100
- Plant response rating, Ragweed [8, 24]: 100
- Ragweed plant response rating [8, 25]: 90
- Plant response rating, Ragweed [8, 26]: 100
- Plant response rating, Corn [9, 13]: 30
- Plant response rating, Corn [9, 14]: 70
- Plant response rating, Wheat [10, 13]: 50
- Plant response rating, Wheat [10, 14]: 90
- Plant response rating, Foxtail, Giant [11, 23]: 100
- Plant response rating, Foxtail, Giant [11, 24]: 100
- Foxtail, Giant plant response rating [11, 25]: 90
- Plant response rating, Foxtail, Giant [11, 26]: 100
- Plant response rating, Kochia [12, 23]: 100
- Plant response rating, Kochia [12, 24]: 100
- Kochia plant response rating [12, 25]: 30
- Plant response rating, Kochia [12, 26]: 100
